Results published in patent US20040259819A1, “Novel heterocyclic fluoroglycoside derivatives, medicaments containing these compounds, and the use thereof” (Aventis Pharma Deutschland GmbH, priority 2002, published 2004).

Biological target: T1, SGLT (Oryctolagus cuniculus, UniProt P11170)
T1 construct: To prepare brush border membranes from rabbit small intestine, rabbits were sacrificed; from tissue; host or cells: rabbit small intestine mucosa, brush border membrane vesicles (Mg2+ precipitation)
T1 sequence (P11170 1-662): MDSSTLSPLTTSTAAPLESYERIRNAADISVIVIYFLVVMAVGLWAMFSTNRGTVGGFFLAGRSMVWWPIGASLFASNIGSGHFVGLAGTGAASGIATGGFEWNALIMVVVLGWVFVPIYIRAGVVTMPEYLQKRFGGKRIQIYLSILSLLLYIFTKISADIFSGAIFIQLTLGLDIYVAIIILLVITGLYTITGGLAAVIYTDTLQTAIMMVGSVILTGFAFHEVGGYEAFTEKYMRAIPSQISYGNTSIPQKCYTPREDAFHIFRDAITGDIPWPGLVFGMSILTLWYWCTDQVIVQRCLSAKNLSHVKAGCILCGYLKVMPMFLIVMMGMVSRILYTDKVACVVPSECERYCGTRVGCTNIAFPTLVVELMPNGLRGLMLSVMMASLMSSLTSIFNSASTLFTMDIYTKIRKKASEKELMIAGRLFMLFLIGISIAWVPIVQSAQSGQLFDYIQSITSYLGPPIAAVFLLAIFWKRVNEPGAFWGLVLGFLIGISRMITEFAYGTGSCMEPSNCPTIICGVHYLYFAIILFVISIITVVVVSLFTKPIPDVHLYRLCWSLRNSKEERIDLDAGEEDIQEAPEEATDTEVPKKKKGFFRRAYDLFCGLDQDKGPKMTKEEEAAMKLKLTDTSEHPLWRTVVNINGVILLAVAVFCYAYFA
Assay: Glucose uptake transport assay on rabbit small intestine brush border membrane vesicles
Format: biochemical
Conditions: uptake of 10 μM [14C]D glucose into rabbit small intestine brush border membrane vesicles, 15 seconds, 30° C., membrane filtration method
Method: Preparation of brush border membrane vesicles from the small intestine of rabbits, rats and pigs
Preparation of brush border membrane vesicles from the intestinal cells of the small intestine was carried out by the so-called Mg^2+ precipitation method. The mucosa of the small intestine was scraped off and suspended in 60 ml of ice-cold Tris/HCl buffer (pH 7.1)/300 mM mannitol, 5 mM EGTA. Dilution to 300 ml with ice-cold distilled water was followed by homogenization with an Ultraturrax (18 shaft, IKA Werk Staufen, FRG) at 75% of the max. power for 2×1 minute, while cooling in ice. After addition of 3 ml of 1M MgCl2 solution (final concentration 10 mM), the mixture is left to stand at 0° C. for exactly 15 minutes. Addition of Mg^2+ causes the cell membranes to aggregate and precipitate with the exception of the brush border membranes. After centrifugation at 3 000×g (5 000 rpm, SS-34 rotor) for 15 minutes, the precipitate is discarded and the supernatant, which contains the brush border membranes, is centrifuged at 26 700×g (15 000 rpm, SS-34 rotor) for 30 minutes. The supernatant is discarded, and the precipitate is rehomogenized in 60 ml of 12 mM Tris/HCl buffer (pH 7.1)/60 mM mannitol, 5 mM EGTA using a Potter Elvejhem homogenizer (Braun, Melsungen, 900 rpm, 10 strokes). Addition of 0.1 ml of 1M MgCl2 solution and incubation at 0° C. for 15 minutes is followed by centrifugation again at 3 000×g for 15 minutes. The supernatant is then centrifuged again at 46 000×g (20 000 rpm, SS-34 rotor) for 30 minutes. The precipitate is taken up in 30 ml of 20 mM Tris/Hepes buffer (pH 7.4)/280 mM mannitol and homogeneously resuspended by 20 strokes in a Potter Elvejhem homogenizer at 1 000 rpm. After centrifugation at 48 000×g (20 000 rpm, SS-34 rotor) for 30 minutes, the precipitate was taken up in 0.5 to 2 ml of Tris/Hepes buffer (pH 7.4)/280 mM mannitol (final concentration 20 mg/ml) and resuspended using a tuberculin syringe with a 27 gauge needle. […]
The uptake of [^14C]-labeled glucose into brush border membrane vesicles was measured by the membrane filtration method. […]

IC50	Compound
4000 nM	COc1ccc(Cc2sccc2OC2OC(CO)C(F)C(O)C2O)cc1 (single isomer, unassigned) [Example 1]
300 nM	COc1ccc(Cc2sccc2OC2OC(CO)C(F)C(O)C2O)cc1 (single isomer, unassigned) [Example 3]
400 nM	COc1ccc(Cc2sc3ccccc3c2OC2OC(CO)C(F)C(O)C2O)cc1 (stereo not drawn) [Example 2]
